Measured values from PubChem BioAssay AID1963871 (Molecular Pharmacology Branch, DTP, NCI, 2024).

System: KRAS-mutant PDC multicell tumor spheroid viability
Test: Anticancer human tumor 521955-158-R2-J5-PDC patient-derived pancreatic carcinoma cell line growth inhibition [KRAS2]
Details: for IC50: curve of first compound; for viability, T/C: stronger effect = lower value
Source text: Multicellular complex tumor spheroid response to RAS pathway inhibitors in combination with a targeted agents in patient-derived cell lines with oncogenic KRAS variants from multiple cancer types
A high-throughput screen of multi-cell type tumor spheroids was designed to identify active combinations of targeted small molecules and KRAS pathway inhibitors. Complex spheroids include a stromal component modeled by human endothelial cells (HUVEC) and fibroblasts modeled by human mesenchymal stem cells (MSCs). The concentration ranges selected for each drug and investigational agent were based upon clinically achievable concentrations if the clinical Cmax of the agent was known.
Compounds. The drugs and investigational agents: BI-3406 (NSC825286), BAY-293 (NSC824723), batoprotafib (TNO155; NSC825523), sotorasib (AMG 510; NSC818433), MRTX1257 (NSC819558), elimusertib (BAY 1895344; NSC800525), molibresib (GSK525762; NSC774829), temuterkib (LY3214996; NSC803410), venetoclax (NSC766270), alisertib (NSC759677), olaparib (NSC753686), talazoparib (NSC767125), erdafitinib (NSC781556), ipatasertib (NSC767898), cabozantinib (NSC761068), nintedanib (NSC756659), abemaciclib (NSC768073), docetaxel (NSC628503), trametinib (NSC758246), and sapanisertib (NSC764658) were obtained from the National Cancer Institute (NCI) Developmental Therapeutics Program Chemical Repository. The FDA-approved anticancer drug set is available from the Developmental Therapeutics Program. […] The stock solutions were prepared in dimethyl sulfoxide (DMSO, Sigma-Aldrich, St. Louis, MO, cat. D2650) at 800-fold the tested concentration and stored at -70 degrees C prior to their use. All drugs and investigational agents were tested over a range starting from a high concentration at or near the clinical Cmax and decreasing in half-log increments. If the clinical Cmax for an agent had not been determined, the highest concentration tested was 10 microM.
Cell Culture. All cells were maintained in an incubator at 37 degrees C and 5% CO2 with 95% humidity. The PDC lines were cultured according to standard operating procedures established by the NCI PDMR (https://pdmr.cancer.gov/sops/default.htm). Briefly, all PDCs were thawed and cultured in Matrigel-coated flasks prepared with a working solution of 1X Ham's F-12 nutrient mix, without supplementation (Invitrogen, Waltham, MA, cat. 11765054), 100 U/mL penicillin-streptomycin (Invitrogen, cat. 15140122), and 2.5% Matrigel (Corning Inc., Corning, NY, cat. 354248) for the first three passages. All PDCs were cultured in complete DMEM/F-12 media containing advanced DMEM/F-12 (Invitrogen, cat. 12634028), 4.9% defined fetal bovine serum, heat inactivated (HyClone Laboratories Inc., Logan, UT, cat. SH30070.03HI), 389 ng/mL hydrocortisone (Sigma-Aldrich, cat. H4001), 9.7 ng/mL human EGF recombinant protein (Invitrogen, cat. PHG0313), 23.4 microg/mL adenine (Sigma-Aldrich, cat. A2786), 97.3 U/mL penicillin-streptomycin (Invitrogen, cat. 15140122), 1.9 mM L-glutamine (Invitrogen, cat. 25030081), and 9.7 microM Y-27632 dihydrochloride (Tocris Bioscience, Bristol, United Kingdom, cat. 1254). The PDCs were cultured in complete DMEM/F12 media without 9.7 microM Y-27632 dihydrochloride for at least two passages prior to the screen. The established cell line HOP-62 was cultured in RPMI 1640 medium, HEPES (Invitrogen, cat. 22400105) with 10% defined fetal bovine serum (HyClone Laboratories Inc., cat. SH30070.03) and 2 mM L-glutamine (Invitrogen, cat. 25030081). The pooled donor HUVEC were cultured in endothelial cell growth medium 2 (PromoCell, Heidelberg, Germany, cat. C-22011) and the hMSC were cultured in mesenchymal stem cell growth medium 2 (PromoCell, cat. C-28009). For all experiments, HUVEC and hMSC were used at passages </=5, while the malignant cell lines were used at passages </=15. […]

[1] = second compound 0.1 µM, first compound 0.0316 µM
[2] = second compound 0.1 µM, first compound 0.1 µM
[3] = second compound 0.1 µM, first compound 0.316 µM
[4] = second compound 0.1 µM, first compound 1 µM
[5] = second compound 0.1 µM, first compound 3.16 µM
[6] = second compound 0.1 µM, first compound 10 µM
[7] = second compound 0.316 µM, first compound 0.0316 µM
[8] = second compound 0.316 µM, first compound 0.1 µM
[9] = second compound 0.316 µM, first compound 0.316 µM
[10] = second compound 0.316 µM, first compound 1 µM
[11] = second compound 0.316 µM, first compound 3.16 µM
[12] = second compound 0.316 µM, first compound 10 µM
[13] = second compound 1 µM, first compound 0.0316 µM
[14] = second compound 1 µM, first compound 0.1 µM
[15] = second compound 1 µM, first compound 0.316 µM
[16] = second compound 1 µM, first compound 1 µM
[17] = second compound 1 µM, first compound 3.16 µM
[18] = second compound 1 µM, first compound 10 µM
[19] = second compound 3.16 µM, first compound 0.0316 µM
[20] = second compound 3.16 µM, first compound 0.1 µM
[21] = second compound 3.16 µM, first compound 0.316 µM
[22] = second compound 3.16 µM, first compound 1 µM
[23] = second compound 3.16 µM, first compound 3.16 µM
[24] = second compound 3.16 µM, first compound 10 µM
[25] = second compound 10 µM, first compound 0.0316 µM
[26] = second compound 10 µM, first compound 0.1 µM
[27] = second compound 10 µM, first compound 0.316 µM
[28] = second compound 10 µM, first compound 1 µM
[29] = second compound 10 µM, first compound 3.16 µM
[30] = second compound 10 µM, first compound 10 µM
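Note: viability read after seven days of drug exposure.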

CC1OCC2(CCN(c3cnc(Sc4ccnc(N)c4Cl)c(N)n3)CC2)C1N (stereo not given) + C=CC(=O)N1CCN(c2nc(=O)n(-c3c(C)ccnc3C(C)C)c3nc(-c4c(O)cccc4F)c(F)cc23)C(C)C1
IC50 (second compound 0.1 µM): > 10000 nM | IC50 (second compound 0.316 µM): > 10000 nM | IC50 (second compound 1 µM): > 10000 nM | IC50 (second compound 3.16 µM): > 10000 nM | IC50 (second compound 10 µM): > 10000 nM | viability, T/C [1]: 89.8% | viability, T/C [2]: 96.4% | viability, T/C [3]: 76.3% | viability, T/C [4]: 72% | viability, T/C [5]: 97.5% | viability, T/C [6]: 67.6% | viability, T/C [7]: 89.4% | viability, T/C [8]: 81.5% | viability, T/C [9]: 76.2% | viability, T/C [10]: 75.7% | viability, T/C [11]: 71.6% | viability, T/C [12]: 63.4% | viability, T/C [13]: 101% | viability, T/C [14]: 88.4% | viability, T/C [15]: 91.8% | viability, T/C [16]: 87.4% | viability, T/C [17]: 71.7% | viability, T/C [18]: 66.4% | viability, T/C [19]: 92.1% | viability, T/C [20]: 87.5% | viability, T/C [21]: 72.3% | viability, T/C [22]: 79.1% | viability, T/C [23]: 62% | viability, T/C [24]: 64.7% | viability, T/C [25]: 66.2% | viability, T/C [26]: 59.3% | viability, T/C [27]: 66.2% | viability, T/C [28]: 61.3% | viability, T/C [29]: 54.6% | viability, T/C [30]: 57.8%

Cn1nccc1Nc1nccc(-c2cc3c(s2)C(C)(C)N(CCN2CCOCC2)C3=O)n1 + C=CC(=O)N1CCN(c2nc(=O)n(-c3c(C)ccnc3C(C)C)c3nc(-c4c(O)cccc4F)c(F)cc23)C(C)C1
IC50 (second compound 0.1 µM): 1610 nM | IC50 (second compound 0.316 µM): 2020 nM | IC50 (second compound 1 µM): 2910 nM | IC50 (second compound 3.16 µM): 2960 nM | IC50 (second compound 10 µM): 1010 nM | viability, T/C [1]: 98.9% | viability, T/C [2]: 94.9% | viability, T/C [3]: 76.9% | viability, T/C [4]: 59.4% | viability, T/C [5]: 37.9% | viability, T/C [6]: 24.2% | viability, T/C [7]: 125% | viability, T/C [8]: 107% | viability, T/C [9]: 76.9% | viability, T/C [10]: 58.5% | viability, T/C [11]: 47% | viability, T/C [12]: 36.7% | viability, T/C [13]: 117% | viability, T/C [14]: 110% | viability, T/C [15]: 85.3% | viability, T/C [16]: 67.5% | viability, T/C [17]: 42.7% | viability, T/C [18]: 47.5% | viability, T/C [19]: 110% | viability, T/C [20]: 116% | viability, T/C [21]: 84.6% | viability, T/C [22]: 64.2% | viability, T/C [23]: 54.1% | viability, T/C [24]: 40.5% | viability, T/C [25]: 78.5% | viability, T/C [26]: 78.1% | viability, T/C [27]: 61.3% | viability, T/C [28]: 52.8% | viability, T/C [29]: 41.1% | viability, T/C [30]: 43.1%

CC(=O)OC12COC1CC(O)C1(C)C(=O)C(O)C3=C(C)C(OC(=O)C(O)C(NC(=O)OC(C)(C)C)c4ccccc4)CC(O)(C(OC(=O)c4ccccc4)C21)C3(C)C (stereo not given) + C=CC(=O)N1CCN(c2nc(OCC3CCCN3C)nc3c2CCN(c2cccc4cccc(C)c24)C3)CC1CC#N
IC50 (second compound 0.0316 µM): < 10 nM | IC50 (second compound 0.1 µM): < 10 nM | IC50 (second compound 0.316 µM): < 10 nM | IC50 (second compound 1 µM): < 10 nM | IC50 (second compound 3.16 µM): < 10 nM | viability, T/C (second compound 0.0316 µM, first compound 0.01 µM): 21.3% | viability, T/C (second compound 0.0316 µM, first compound 0.0316 µM): 15.8% | viability, T/C (second compound 0.0316 µM, first compound 0.1 µM): 12.7% | viability, T/C (second compound 0.0316 µM, first compound 0.316 µM): 15.2% | viability, T/C (second compound 0.0316 µM, first compound 1 µM): 15.4% | viability, T/C (second compound 0.0316 µM, first compound 3.16 µM): 20.6% | viability, T/C (second compound 0.1 µM, first compound 0.01 µM): 19.4% | viability, T/C [1]: 16.3% | viability, T/C [2]: 12.6% | viability, T/C [3]: 12.7% | viability, T/C [4]: 15.1% | viability, T/C [5]: 18.3% | viability, T/C (second compound 0.316 µM, first compound 0.01 µM): 19.3% | viability, T/C [7]: 10% | viability, T/C [8]: 9.97% | viability, T/C [9]: 11.8% | viability, T/C [10]: 17.3% | viability, T/C [11]: 19.8% | viability, T/C (second compound 1 µM, first compound 0.01 µM): 18.9% | viability, T/C [13]: 13.2% | viability, T/C [14]: 10% | viability, T/C [15]: 9.11% | viability, T/C [16]: 11.5% | viability, T/C [17]: 14.3% | viability, T/C (second compound 3.16 µM, first compound 0.01 µM): 22.1% | viability, T/C [19]: 15.5% | viability, T/C [20]: 15.3% | viability, T/C [21]: 15.8% | viability, T/C [22]: 16.9% | viability, T/C [23]: 21.8%
